Source: ChEMBL document CHEMBL1144064, “Biological evaluation of proanthocyanidin dimers and related polyphenols” (J Nat Prod, 1999)
≈ marks a conversion by molar mass, not a printed value. Calls of active or inactive are those of the source. The rule behind the calls is not given here.

Legend:
[1] = Cytotoxicity against human MT4 cells by MTT assay; assay type: cell-based
Candida albicans = experiment: Antimicrobial activity against Candida albicans; assay type: functional
[2] = tested on: Human immunodeficiency virus; experiment: Antiviral activity against HIV infected in human MT4 cells assessed as inhibition of virus-induced cytopathic effect by MTT assay; assay type: functional, organism-based; conditions: Human immunodeficiency virus 1, MT4
Proteus vulgaris = experiment: Antimicrobial activity against Proteus vulgaris; assay type: functional
Salmonella paratyphi = experiment: Antimicrobial activity against Salmonella paratyphi; assay type: functional, Salmonella enterica subsp. enterica serovar Paratyphi A; conditions: Salmonella enterica
Escherichia coli = experiment: Antimicrobial activity against Escherichia coli; assay type: functional
Simplexvirus = experiment: Antiviral activity against HSV up to 200 ug/mL by extracellular virucidal assay; assay type: functional, organism-based
[3] = Selectivity index, ratio of CC50 for human MT4 cells to IC50 for HIV infected in human MT4 cells; assay type: functional
Staphylococcus aureus = experiment: Antimicrobial activity against Staphylococcus aureus; assay type: functional
Pseudomonas aeruginosa = experiment: Antimicrobial activity against Pseudomonas aeruginosa; assay type: functional
[4] = Modulation of alternative complement pathway system assessed as hemoglobin release by spectrophotometry
[5] = tested on: Mycolicibacterium fortuitum; experiment: Antimicrobial activity against Mycobacterium fortuitum; assay type: functional
Enterobacter cloacae = experiment: Antimicrobial activity against Enterobacter cloacae; assay type: functional
[6] = Antioxidant activity assessed as superoxide radical anion scavenging activity; assay type: functional
[7] = Modulation of classical complement pathway system assessed as hemoglobin release by spectrophotometry
Klebsiella pneumoniae = experiment: Antimicrobial activity against Klebsiella pneumoniae; assay type: functional
Streptococcus pyogenes = experiment: Antimicrobial activity against Streptococcus pyogenes; assay type: functional
Bacillus cereus = experiment: Antimicrobial activity against Bacillus cereus; assay type: functional

## Oc1cc(O)c2c(c1)O[C@H](c1cc(O)c(O)c(O)c1)[C@H](O)C2 [EPIGALLOCATECHIN]
[1]
  CC50: 16.1 µg/mL (≈ 52.6 µM)
Candida albicans
  MBC: > 100 µg/mL
  MIC: > 100 µg/mL
[2]
  IC50: > 16.1 µg/mL
Proteus vulgaris
  MBC: 100 µg/mL (≈ 327 µM)
  MIC: 50 µg/mL (≈ 163 µM)
Salmonella paratyphi
  MBC: > 100 µg/mL
  MIC: > 100 µg/mL
Escherichia coli
  MBC: > 100 µg/mL
  MIC: > 100 µg/mL
Simplexvirus
  Activity: inactive
[3]
  Ratio CC50/IC50: <1
Staphylococcus aureus
  MBC: > 100 µg/mL
  MIC: > 100 µg/mL
Pseudomonas aeruginosa
  MBC: > 100 µg/mL
  MIC: > 100 µg/mL
[4]
  IC50: 179 µM
[5]
  MBC: > 100 µg/mL
  MIC: > 100 µg/mL
Enterobacter cloacae
  MBC: > 100 µg/mL
  MIC: > 100 µg/mL
[6]
  IC50: 3.4 µM
[7]
  IC50: 19.6 µM
Klebsiella pneumoniae
  MBC: 100 µg/mL (≈ 327 µM)
  MIC: 100 µg/mL (≈ 327 µM)

## Oc1cc(O)c2c(c1)O[C@@]1(c3ccc(O)c(O)c3)Oc3cc(O)c4c(c3[C@@H]2[C@H]1O)O[C@H](c1ccc(O)c(O)c1)[C@@H](O)C4 [PROANTHOCYANIDIN A1]
[1]
  CC50: 144 µg/mL (≈ 250 µM)
Candida albicans
  MBC: > 100 µg/mL
  MIC: > 100 µg/mL
[2]
  IC50: 14 µg/mL (≈ 24.3 µM)
Proteus vulgaris
  MIC: 50 µg/mL (≈ 86.7 µM)
Salmonella paratyphi
  MBC: > 100 µg/mL
  MIC: > 100 µg/mL
Escherichia coli
  MBC: > 100 µg/mL
  MIC: > 100 µg/mL
Simplexvirus
  Activity: inactive
[3]
  Ratio CC50/IC50: 10
Staphylococcus aureus
  MBC: > 100 µg/mL
  MIC: > 100 µg/mL
Pseudomonas aeruginosa
  MBC: > 100 µg/mL
  MIC: > 100 µg/mL
[4]
  IC50: 105 µM
[5]
  MBC: > 100 µg/mL
  MIC: > 100 µg/mL
Enterobacter cloacae
  MBC: > 100 µg/mL
  MIC: > 100 µg/mL
[6]
  IC50: 14.7 µM
[7]
  IC50: 57.1 µM

## Oc1cc(O)c2c(c1)O[C@@]1(c3ccc(O)c(O)c3)Oc3cc(O)c4c(c3[C@@H]2[C@H]1O)O[C@H](c1ccc(O)c(O)c1)[C@H](O)C4 [PROANTHOCYANIDIN A2]
[1]
  CC50: 138 µg/mL (≈ 239 µM)
Candida albicans
  MBC: > 100 µg/mL
  MIC: > 100 µg/mL
[2]
  IC50: 5.8 µg/mL (≈ 10.1 µM)
Salmonella paratyphi
  MBC: > 100 µg/mL
  MIC: > 100 µg/mL
Streptococcus pyogenes
  MBC: 50 µg/mL (≈ 86.7 µM)
  MIC: 50 µg/mL (≈ 86.7 µM)
Escherichia coli
  MBC: > 100 µg/mL
  MIC: > 100 µg/mL
Simplexvirus
  Activity: inactive
[3]
  Ratio CC50/IC50: 24
Staphylococcus aureus
  MBC: > 100 µg/mL
  MIC: > 100 µg/mL
Bacillus cereus
  MIC: 100 µg/mL (≈ 173 µM)
Pseudomonas aeruginosa
  MBC: > 100 µg/mL
  MIC: > 100 µg/mL
[4]
  IC50: 113 µM
[5]
  MBC: > 100 µg/mL
  MIC: > 100 µg/mL
Enterobacter cloacae
  MBC: > 100 µg/mL
  MIC: > 100 µg/mL
[6]
  IC50: 17.8 µM
[7]
  IC50: 11.6 µM

## Oc1cc(O)c2c(c1)O[C@H](c1ccc(O)c(O)c1)[C@H](O)[C@H]2c1c(O)cc(O)c2c1O[C@H](c1ccc(O)c(O)c1)[C@H](O)C2 [PROCYANIDIN B2]
[1]
  CC50: 135 µg/mL (≈ 234 µM)
Candida albicans
  MBC: > 100 µg/mL
  MIC: > 100 µg/mL
[2]
  IC50: 17.2 µg/mL (≈ 29.7 µM)
Salmonella paratyphi
  MBC: > 100 µg/mL
  MIC: > 100 µg/mL
Streptococcus pyogenes
  MBC: 100 µg/mL (≈ 173 µM)
  MIC: 100 µg/mL (≈ 173 µM)
Escherichia coli
  MBC: > 100 µg/mL
  MIC: > 100 µg/mL
Simplexvirus
  Activity: inactive
[3]
  Ratio CC50/IC50: 8
Staphylococcus aureus
  MBC: > 100 µg/mL
  MIC: > 100 µg/mL
Pseudomonas aeruginosa
  MBC: > 100 µg/mL
  MIC: > 100 µg/mL
[4]
  Activity: inactive
[5]
  MBC: > 100 µg/mL
  MIC: > 100 µg/mL
Enterobacter cloacae
  MBC: > 100 µg/mL
  MIC: > 100 µg/mL
[6]
  IC50: 10.5 µM
[7]
  IC50: 58 µM

## Oc1cc(O)c2c(c1)O[C@H](c1ccc(O)c(O)c1)[C@H](O)[C@H]2c1c(O)cc(O)c2c1O[C@H](c1ccc(O)c(O)c1)[C@H](O)[C@H]2c1c(O)cc(O)c2c1O[C@H](c1ccc(O)c(O)c1)[C@H](O)C2 [PROCYANIDIN C1]
[1]
  CC50: 16.5 µg/mL (≈ 19 µM)
Candida albicans
  MBC: > 100 µg/mL
  MIC: > 100 µg/mL
[2]
  IC50: 4.3 µg/mL (≈ 4.96 µM)
Salmonella paratyphi
  MBC: > 100 µg/mL
  MIC: > 100 µg/mL
Streptococcus pyogenes
  MBC: 100 µg/mL (≈ 115 µM)
  MIC: 100 µg/mL (≈ 115 µM)
Escherichia coli
  MBC: > 100 µg/mL
  MIC: > 100 µg/mL
Simplexvirus
  Activity: inactive
[3]
  Ratio CC50/IC50: 5
Staphylococcus aureus
  MBC: > 100 µg/mL
  MIC: > 100 µg/mL
Pseudomonas aeruginosa
  MBC: > 100 µg/mL
  MIC: > 100 µg/mL
[4]
  IC50: 85.5 µM
[5]
  MBC: > 100 µg/mL
  MIC: > 100 µg/mL
Enterobacter cloacae
  MBC: > 100 µg/mL
  MIC: > 100 µg/mL
[6]
  IC50: 10.7 µM
[7]
  IC50: 6 µM
